Results on 12 molecules are retold here after article PMC4817154 (Scientific Reports, 2016).

Where “and” joins values, the source holds several entries; their conditions need not be identical. Equal values may be shown once.

In series [1] the target is T1, dmSERT-F90Y (Drosophila melanogaster, UniProt P51905, F90Y).
T1 construct: expressed in transfected cells; host or cells: T-REx-293
Format: cell-based.

Series [2] concerns the target T2, dmSERT-D164A (Drosophila melanogaster, UniProt P51905, D164A).
T2 construct: expressed in transfected cells; host or cells: T-REx-293
Format: cell-based.

The target in series [3] is T3, dmSERT-M167I (Drosophila melanogaster, UniProt P51905, M167I).
T3 construct: expressed in transfected cells; host or cells: T-REx-293
Format: cell-based.

Series [4] concerns the target T4, dmSERT-G168A (Drosophila melanogaster, UniProt P51905, G168A).
T4 construct: expressed in transfected cells; host or cells: T-REx-293
Format: cell-based.

For series [5], the target named is T5, dmSERT-N484E (Drosophila melanogaster, UniProt P51905, N484E).
T5 construct: expressed in transfected cells; host or cells: T-REx-293
Format: cell-based.

Series [6] deals with T6, dmSERT-P488T (Drosophila melanogaster, UniProt P51905, P488T).
T6 construct: expressed in transfected cells; host or cells: T-REx-293
Format: cell-based.

For series [7], the target named is T7, dmSERT-I492V (Drosophila melanogaster, UniProt P51905, I492V).
T7 construct: expressed in transfected cells; host or cells: T-REx-293
Format: cell-based.

The target of another series is ggSERT-WT (Gallus gallus, UniProt Q6PWI2). Nature of the series: Steady-state kinetics of [3H]5-HT transport. Format: cell-based, chicken (Gallus gallus). From the text: (§1) Control cells were transfected with empty vector.
The next series addresses T8, dmSERT-WT (Drosophila melanogaster, UniProt P51905).
T8 construct: expressed in transfected cells; host or cells: T-REx-293
T8 sequence (P51905 1-622): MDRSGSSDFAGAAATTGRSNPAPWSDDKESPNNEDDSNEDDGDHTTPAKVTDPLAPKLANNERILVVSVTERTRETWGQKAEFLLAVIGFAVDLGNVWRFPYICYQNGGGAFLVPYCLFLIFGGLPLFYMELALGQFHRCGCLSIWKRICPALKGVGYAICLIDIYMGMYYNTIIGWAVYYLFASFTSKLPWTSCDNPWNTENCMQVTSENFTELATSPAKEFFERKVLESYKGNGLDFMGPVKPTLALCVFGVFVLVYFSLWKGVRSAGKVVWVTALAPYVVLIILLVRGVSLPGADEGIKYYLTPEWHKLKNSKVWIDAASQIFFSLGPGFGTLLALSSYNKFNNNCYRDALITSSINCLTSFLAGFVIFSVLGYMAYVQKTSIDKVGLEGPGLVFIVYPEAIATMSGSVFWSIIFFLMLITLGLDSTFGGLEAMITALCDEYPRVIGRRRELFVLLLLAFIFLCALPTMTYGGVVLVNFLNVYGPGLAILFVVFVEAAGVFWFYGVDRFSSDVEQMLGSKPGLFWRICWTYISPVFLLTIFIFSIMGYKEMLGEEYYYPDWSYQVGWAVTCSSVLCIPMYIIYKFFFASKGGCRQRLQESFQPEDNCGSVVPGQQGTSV
Nature of the series: Paroxetine inhibition of [3H]5-HT transport. Format: cell-based.

The target in series [8] is T1, dmSERT-F90Y. Kind of series: cell-based.
For series [9], the target named is T2, dmSERT-D164A. Nature of the series: cell-based.
In series [10] the target is T3, dmSERT-M167I. Nature of the series: cell-based.
Series [11] has as its target T4, dmSERT-G168A. Nature of the series: cell-based.
The target in series [12] is T5, dmSERT-N484E. Kind of series: cell-based.
The target of series [13] is T6, dmSERT-P488T. Nature of the series: cell-based.
In series [14] the target is T7, dmSERT-I492V. Nature of the series: cell-based.
The next series deals with LeuBAT-Δ13. The following applies: LeuBAT-Δ13 construct; cited from earlier work.
For a further series, the target named is dmSERT. More on the design: method as in PMID 8197200, PMID 9677366. To be noted: read-out: published paroxetine Ki for inhibition of [3H]5-HT uptake; cited from earlier work.
Another series concerns the target ggSERT. The arrangement: method as in PMID 15271993. The following applies: read-out: published paroxetine Ki for inhibition of [3H]5-HT uptake; cited from earlier work.
In a further series the target is hsSERT-Y95F (Homo sapiens, UniProt P31645, Y95F). To be noted: cited from earlier work.
The subject of the next series is NCCc1c[nH]c2ccc(O)cc12. Kind of series: cells, lysate or membranes. The following applies: [3H]5-HT transport, T-REx-293 cells, average ± SEM, pH 7.4.
Substrate in series [15]: NCCc1c[nH]c2ccc(O)cc12
Nature of the series: cells, lysate or membranes. Format: cell-based, chicken (Gallus gallus). To be noted: [3H]5-HT transport, T-REx-293 cells, average ± SEM, pH 7.4.
Source text: as §1

As to `NCCc1c[nH]c2ccc(O)cc12` [5-HT, 5-hydroxytryptamine], the “% wt Vmax” value on dmSERT-F90Y [1] amounted to 109.7 ± 4.2%; at dmSERT-D164A [2], 136.0 ± 10.6%; on dmSERT-M167I [3] it was 79.9 ± 22.1%; at dmSERT-G168A [4], 330.3 ± 61.7%; at dmSERT-N484E [5] it was 8.0 ± 1.8%; on dmSERT-P488T [6], 15.1 ± 0.3%. Besides, the “% wt Vmax” value at dmSERT-I492V [7] came to 89.8 ± 8.8%; on ggSERT-WT, 100 ± 9.6%.

`Fc1ccc([C@@H]2CCNC[C@H]2COc2ccc3c(c2)OCO3)cc1` [Paroxetine, (3S,4R)-3-[(2H-1,3-benzodioxol-5-yloxy)methyl]-4-(4-fluorophenyl)piperidine]: the concentration for half-maximal inhibition (IC50) against dmSERT-WT amounted to 6.1 ± 1.35 nM; at dmSERT-F90Y [8], 5.31 ± 0.94 nM; on dmSERT-D164A [9] it was 0.86 ± 0.07 nM; against dmSERT-M167I [10] it was 2.71 ± 0.29 nM; on dmSERT-G168A [11], 2.8 ± 0.66 nM; against dmSERT-N484E [12], 1.9 ± 0.22 nM. In addition, the IC50 at dmSERT-P488T [13] worked out at 20.5 ± 1.86 nM; against dmSERT-I492V [14], 16.3 ± 1.2 nM. Moreover, the inhibition constant (Ki) on dmSERT-WT (Ki, dmSERT-WT, from IC50 and Km via Cheng-Prusoff) is 6.04 ± 1.33 nM; at dmSERT-F90Y [8], 5.26 ± 0.93 nM; at dmSERT-D164A [9] (Ki, dmSERT-D164A, from IC50 and Km via Cheng-Prusoff) it was 0.9 nM and 0.86 nM; at dmSERT-M167I [10], 2.68 ± 0.29 nM; on dmSERT-G168A [11], 2.78 ± 0.66 nM; on dmSERT-N484E [12], 1.83 ± 0.21 nM. Further, the Ki at dmSERT-P488T [13] is 20.3 ± 1.85 nM; on dmSERT-I492V [14], 16.2 ± 1.2 nM; on dmSERT, 3.4 nM; at ggSERT it was 397 nM. Moreover, the dissociation constant (Kd) at LeuBAT-Δ13 is around 430 nM.

`OC1(c2ccc(Cl)cc2)c2ccccc2C2=NCCN21` (stereo not drawn) [mazindol]: the change in potency result on hsSERT-Y95F is reported as “increase”.

On to “dmSERT-D164A (Drosophila melanogaster; D164A)”, for which, in the series on NCCc1c[nH]c2ccc(O)cc12 (other: dmSERT-D164A), the Km is 10,258 ± 756 nM and the Vmax is recorded as 87.9 ± 6.8 pmol/min/mg total cell protein.

With “dmSERT-F90Y (Drosophila melanogaster; F90Y)”, in the series with NCCc1c[nH]c2ccc(O)cc12 (other: dmSERT-F90Y), the Michaelis-Menten constant (Km) is 1,784 ± 121 nM and the Vmax is reported as 70.9 ± 2.7 pmol/min/mg total cell protein.

For “dmSERT-G168A (Drosophila melanogaster; G168A)”, in the series on NCCc1c[nH]c2ccc(O)cc12 (other: dmSERT-G168A), the Michaelis-Menten constant (Km) is on record as 3,342 ± 272 nM and the Vmax is listed as 213.4 ± 39.9 pmol/min/mg total cell protein.

“dmSERT-I492V (Drosophila melanogaster; I492V)”: in the series with NCCc1c[nH]c2ccc(O)cc12 (other: dmSERT-I492V), the Michaelis constant (Km) is 3,281 ± 357 nM and the Vmax was 58.0 ± 5.7 pmol/min/mg total cell protein.

Turning to “dmSERT-M167I (Drosophila melanogaster; M167I)”, in the series on NCCc1c[nH]c2ccc(O)cc12 (other: dmSERT-M167I), the Michaelis-Menten constant (Km) is 1,487 ± 132 nM and the Vmax was 51.6 ± 14.3 pmol/min/mg total cell protein.

Regarding “dmSERT-N484E (Drosophila melanogaster; N484E)”, in the series on NCCc1c[nH]c2ccc(O)cc12 (other: dmSERT-N484E), the Km came to 522 ± 67 nM and the Vmax is 5.2 ± 1.2 pmol/min/mg total cell protein.

For the molecule “dmSERT-P488T (Drosophila melanogaster; P488T)”, in the series with NCCc1c[nH]c2ccc(O)cc12 (other: dmSERT-P488T), the Km is on record as 2,737 ± 277 nM and the Vmax is reported as 9.8 ± 0.2 pmol/min/mg total cell protein.

B1: ggSERT-WT (Gallus gallus) (protein)
chain: MENKATSNETQPLTSKKGISDCNEGEDCKENGLLIRNPKSALRLVDDGNKVHPGQGDKEEAAQISNGYSGVQSSGPCSGMGEAEDAQCTAPAATTTTTTTTSTTCGAEGQQQLMELGDRETWSKKIDFLLSVIGYAVDLGNVWRFPYICYQNGGGAFLIPYTIMAIFGGIPLFYMELALGQYHRNGCISIWRKICPIFKGIGFAICIIDLYVASYYNTIMAWVFYYLVSSFTTELPWTSCNNAWNTGNCTTYFSKDNISWALHSISPAEEFYTRQVLQVHRSNGLDDLGGISWQLTLCLLLIFIIVYFSIWKGVKTSGKVVWVTATFPYVILFILLVRGATLPGAWRGVLYYLKPEWQKLLATEVWVDAAAQIFFSLGPGFGVLLAYASYNKFHNNCYQDALVTSTVNCLTSFVSGFVIFTVLGYMAEMRNEDVSEVAKDMGPSLLFITYAEAIANMPASTFFAIIFFLMLLTLGLDSTFAGLEGVITGVLDEFPHVWSKRREFFVLGLIIICFLGSLATLTFGGAYVVKLFEEYATGPAVLTVVFLEAVAVAWFYGITQFCNDVKEMLGFAPGWYWRVCWVAISPIFLLFVTCSFLSNPPELRLFDYNYPYWTTVVGYCIGTSSIICIPIYMAYRLIITPGTLKERILKSITPETATEIPFGDIRMNAV
For B1, the Vmax in [15] (other: ggSERT-WT) is on record as 18.4 ± 1.8 pmol/min/mg total cell protein.

B2: ggSERT-D209A (Gallus gallus; D209A) (protein)
chain: MENKATSNETQPLTSKKGISDCNEGEDCKENGLLIRNPKSALRLVDDGNKVHPGQGDKEEAAQISNGYSGVQSSGPCSGMGEAEDAQCTAPAATTTTTTTTSTTCGAEGQQQLMELGDRETWSKKIDFLLSVIGYAVDLGNVWRFPYICYQNGGGAFLIPYTIMAIFGGIPLFYMELALGQYHRNGCISIWRKICPIFKGIGFAICIIALYVASYYNTIMAWVFYYLVSSFTTELPWTSCNNAWNTGNCTTYFSKDNISWALHSISPAEEFYTRQVLQVHRSNGLDDLGGISWQLTLCLLLIFIIVYFSIWKGVKTSGKVVWVTATFPYVILFILLVRGATLPGAWRGVLYYLKPEWQKLLATEVWVDAAAQIFFSLGPGFGVLLAYASYNKFHNNCYQDALVTSTVNCLTSFVSGFVIFTVLGYMAEMRNEDVSEVAKDMGPSLLFITYAEAIANMPASTFFAIIFFLMLLTLGLDSTFAGLEGVITGVLDEFPHVWSKRREFFVLGLIIICFLGSLATLTFGGAYVVKLFEEYATGPAVLTVVFLEAVAVAWFYGITQFCNDVKEMLGFAPGWYWRVCWVAISPIFLLFVTCSFLSNPPELRLFDYNYPYWTTVVGYCIGTSSIICIPIYMAYRLIITPGTLKERILKSITPETATEIPFGDIRMNAV
With B2, in [15] (other: ggSERT-D209A), the Km came out at 0.971 ± 0.071 µM and the Vmax is reported as 73.8 ± 21.5 pmol/min/mg total cell protein.
